ChEMBL document CHEMBL1156829 (Proc Natl Acad Sci U S A, 2008)

Experiments:
[1] = NOVARTIS: Cytotoxicity against human hepatocellular carcinoma cell line (Huh7); assay type: toxicity, cell-based, Huh-7; settings: Huh7 cells (hepatocellular carcinoma cell line)
Plasmodium falciparum [2] = test: NOVARTIS: Inhibition of Plasmodium falciparum 3D7 (drug-susceptible) proliferation in erythrocyte-based infection assay; assay type: functional, organism-based; settings: Plasmodium falciparum, 3D7
Plasmodium falciparum [3] = test: NOVARTIS: Inhibition of Plasmodium falciparum W2 (drug-resistant) proliferation in erythrocyte-based infection assay; assay type: functional, organism-based; settings: Plasmodium falciparum, W2; read-out: EC50

C[n+]1ccc(C=Cc2ccccc2F)c2ccccc21
CC50 [1]: 81900 nM
EC50 (Plasmodium falciparum [2]): 57.6 nM
EC50 (Plasmodium falciparum [3]): 78.1 nM

O=[N+]([O-])c1ccc(N2CCCN(C(=S)Nc3ccc(F)cc3Br)CC2)nc1
CC50 [1]: > 100000 nM
EC50 (Plasmodium falciparum [2]): 110 nM
EC50 (Plasmodium falciparum [3]): 90.3 nM

S=C(NN=Cc1ccccn1)NC1CC2C=CC1C2 (stereo unspecified)
CC50 [1]: 44300 nM
EC50 (Plasmodium falciparum [2]): 38.5 nM
EC50 (Plasmodium falciparum [3]): 44.8 nM

COc1cc(OC)c(NC(=O)C2c3ccccc3C(=O)N(CC(C)C)C2c2cccs2)cc1Cl (stereo unspecified)
CC50 [1]: > 100000 nM
EC50 (Plasmodium falciparum [2]): 114 nM
EC50 (Plasmodium falciparum [3]): 90.5 nM

N#Cc1ccc(-c2cnc(N)c(-c3ccc(C(N)=O)cc3)n2)cc1
CC50 [1]: > 100000 nM
EC50 (Plasmodium falciparum [2]): 60.3 nM
EC50 (Plasmodium falciparum [3]): 99.8 nM

COc1cc(C2Nc3ccc4ccccc4c3C3=C2C(=O)CC(C)(C)C3)ccc1Oc1ccc([N+](=O)[O-])cc1C(F)(F)F (stereo unspecified)
CC50 [1]: > 100000 nM
EC50 (Plasmodium falciparum [2]): 285 nM
EC50 (Plasmodium falciparum [3]): 95.8 nM

COc1ccc(C2=C(Nc3ccc4oc5ccccc5c4c3)c3ccccc3C2=O)cc1
CC50 [1]: > 100000 nM
EC50 (Plasmodium falciparum [2]): 142 nM
EC50 (Plasmodium falciparum [3]): 100 nM

O=C(N1CCN(c2ccc(C(F)(F)F)cc2[N+](=O)[O-])CC1)C(Cl)(Cl)Cl
CC50 [1]: > 95000 nM
EC50 (Plasmodium falciparum [2]): 263 nM
EC50 (Plasmodium falciparum [3]): 86.6 nM

CCCN(CCC)[P+](CCC)(c1ccc([P+](CCC)(N(CCC)CCC)N(CCC)CCC)cc1)N(CCC)CCC
CC50 [1]: 72600 nM
EC50 (Plasmodium falciparum [2]): 193 nM
EC50 (Plasmodium falciparum [3]): 66.8 nM

c1ccc2c(c1)OC13CCCCC1C2NCC3 (stereo unspecified)
CC50 [1]: 48600 nM
EC50 (Plasmodium falciparum [2]): 270 nM
EC50 (Plasmodium falciparum [3]): 43.6 nM

CN(C)c1ccc(C=Cc2nc(=O)c3ccccc3o2)cc1
CC50 [1]: > 100000 nM
EC50 (Plasmodium falciparum [2]): 95.9 nM
EC50 (Plasmodium falciparum [3]): 96.1 nM

CC(=O)Nc1cc(C(=O)Nc2ccc(C3=NCCN3)cc2)ccc1C(=O)Nc1ccc(C2=NCCN2)cc1
CC50 [1]: > 100000 nM
EC50 (Plasmodium falciparum [2]): 323 nM
EC50 (Plasmodium falciparum [3]): 103 nM

CCOC(=O)c1cccc(NC(=O)CC2C(=O)N(c3ccccc3)C(=O)N2C2CCCC2)c1 (stereo unspecified)
CC50 [1]: > 100000 nM
EC50 (Plasmodium falciparum [2]): 276 nM
EC50 (Plasmodium falciparum [3]): 88.4 nM

Cc1ccn2c(NC(C)(C)CC(C)(C)C)c(-c3ccccc3OC(=O)c3ccccc3C)nc2c1
CC50 [1]: > 10000 nM
EC50 (Plasmodium falciparum [2]): 757 nM
EC50 (Plasmodium falciparum [3]): < 9.03 nM

COc1cccc(-c2ccc(O)c(CN(C)CCc3ccc(OC)c(OC)c3)c2)n1
CC50 [1]: 57900 nM
EC50 (Plasmodium falciparum [2]): 337 nM
EC50 (Plasmodium falciparum [3]): 52.3 nM

CC(=NO)c1ccc(NC2=C(N3CCCCC3)C(=O)c3ccccc3C2=O)cc1
CC50 [1]: > 100000 nM
EC50 (Plasmodium falciparum [2]): 94.1 nM
EC50 (Plasmodium falciparum [3]): 90 nM

CCOC(=O)c1cccc(NC(=O)CCn2c(-c3ccc(F)cc3)cc(C(=O)OCC)c2C)c1
CC50 [1]: > 100000 nM
EC50 (Plasmodium falciparum [2]): 59 nM
EC50 (Plasmodium falciparum [3]): 89.7 nM

O=C1C(=Cc2ccccc2)Oc2c1ccc(O)c2CN1CCCCC1
CC50 [1]: > 100000 nM
EC50 (Plasmodium falciparum [2]): 1420 nM
EC50 (Plasmodium falciparum [3]): 91 nM

O=C(c1cccc([N+](=O)[O-])c1)c1ccc(Cl)c(Cl)c1
CC50 [1]: 62400 nM
EC50 (Plasmodium falciparum [2]): 612 nM
EC50 (Plasmodium falciparum [3]): 57.5 nM

CCOc1ccc(Nc2cc(=O)oc3ccccc23)cc1
CC50 [1]: > 100000 nM
EC50 (Plasmodium falciparum [2]): 610 nM
EC50 (Plasmodium falciparum [3]): 91.9 nM

COc1ccc(CCN2C(=O)N(CC(C)C)C(=O)C23CCN(Cc2ccccc2O)CC3)cc1
CC50 [1]: > 100000 nM
EC50 (Plasmodium falciparum [2]): 225 nM
EC50 (Plasmodium falciparum [3]): 93.1 nM

CCCCS(=O)(=O)N(C)CCCNc1ccnc2cc(Cl)ccc12
CC50 [1]: > 10000 nM
EC50 (Plasmodium falciparum [2]): 68.8 nM
EC50 (Plasmodium falciparum [3]): < 9.18 nM

O=C(Nc1ccc(F)c(Cl)c1)c1c2c(nc3ccccc13)CCN(Cc1ccccc1)C2
CC50 [1]: > 100000 nM
EC50 (Plasmodium falciparum [2]): 799 nM
EC50 (Plasmodium falciparum [3]): 96.7 nM

COC(=O)C1=C(C)NC2=C(C(=O)CC(c3ccc(OC)c(OC)c3)C2)C1c1cccc(Cl)c1Cl (stereo unspecified)
CC50 [1]: > 100000 nM
EC50 (Plasmodium falciparum [2]): 207 nM
EC50 (Plasmodium falciparum [3]): 93.7 nM

CCCOC(=O)C1=C(C)NC2=C(C(=O)CC(c3ccc(OC)c(OC)c3)C2)C1c1ccc(Cl)c(Cl)c1 (stereo unspecified)
CC50 [1]: 52600 nM
EC50 (Plasmodium falciparum [2]): 143 nM
EC50 (Plasmodium falciparum [3]): 49.2 nM

CCc1ccc(C(=O)Oc2ccccc2-c2nc3cc(C)ccn3c2NC(C)(C)CC(C)(C)C)cc1
CC50 [1]: > 10000 nM
EC50 (Plasmodium falciparum [2]): 454 nM
EC50 (Plasmodium falciparum [3]): < 9.29 nM

C[C@@H]1CCC[C@@H](C[C@H]2Cc3cc(O)cc(O)c3C(=O)O2)O1
CC50 [1]: > 100000 nM
EC50 (Plasmodium falciparum [2]): 45.4 nM
EC50 (Plasmodium falciparum [3]): 92.7 nM

CN1C(=O)N(C)C2(c3ccccc3)NN3C(=NC12c1ccccc1)SC1=C3C(=O)c2ccccc2C1=O (stereo unspecified)
CC50 [1]: > 100000 nM
EC50 (Plasmodium falciparum [2]): 2830 nM
EC50 (Plasmodium falciparum [3]): 95.5 nM

COC(=O)C1=C(C)NC2=C(C(=O)CC(c3ccc(OC)cc3)C2)C1c1ccccc1F (stereo unspecified)
CC50 [1]: > 100000 nM
EC50 (Plasmodium falciparum [2]): 231 nM
EC50 (Plasmodium falciparum [3]): 88.4 nM

CC(=O)N(C1=C(N2CCCCC2)C(=O)c2ccccc2C1=O)c1ccccc1C
CC50 [1]: 20200 nM
EC50 (Plasmodium falciparum [2]): 34 nM
EC50 (Plasmodium falciparum [3]): 18.1 nM

COC(=O)C1=C(C)NC2=C(C(=O)CC(c3ccc(Cl)cc3)C2)C1c1ccc(F)cc1 (stereo unspecified)
CC50 [1]: > 100000 nM
EC50 (Plasmodium falciparum [2]): 188 nM
EC50 (Plasmodium falciparum [3]): 98.2 nM

CCOC(=O)c1ccc(NCc2c(C)[nH]c(C(=O)OCC)c2C)cc1
CC50 [1]: > 100000 nM
EC50 (Plasmodium falciparum [2]): 238 nM
EC50 (Plasmodium falciparum [3]): 97.7 nM

COCCNC(=O)c1ccc(OC2CCN(CC(c3ccccc3)c3ccccc3)CC2)c(OC)c1
CC50 [1]: > 76700 nM
EC50 (Plasmodium falciparum [2]): 303 nM
EC50 (Plasmodium falciparum [3]): 74.9 nM

O=[N+]([O-])c1ccc(S(=O)(=O)N2CCN(C(=S)NCCc3ccccc3)CC2)cc1
CC50 [1]: > 100000 nM
EC50 (Plasmodium falciparum [2]): 97.2 nM
EC50 (Plasmodium falciparum [3]): 97.1 nM

CCOC(=O)c1cccc(NC(=O)CC2C(=O)N(c3ccc(F)cc3)C(=O)N2CCC(C)C)c1 (stereo unspecified)
CC50 [1]: > 100000 nM
EC50 (Plasmodium falciparum [2]): 202 nM
EC50 (Plasmodium falciparum [3]): 101 nM

O=C(NCc1ccco1)c1ccc(OC2CCN(CC3CCCCC3)CC2)c(Cl)c1
CC50 [1]: 23500 nM
EC50 (Plasmodium falciparum [2]): 95.1 nM
EC50 (Plasmodium falciparum [3]): 23.6 nM

CC(C)(C)CC(C)(C)Nc1c(-c2ccccc2OC(=O)C2CCCCC2)nc2ccccn12
CC50 [1]: > 10000 nM
EC50 (Plasmodium falciparum [2]): 349 nM
EC50 (Plasmodium falciparum [3]): 10.1 nM

O=[N+]([O-])c1ccc(S(=O)(=O)N2CCN(C(=S)NCC3CCCO3)CC2)cc1 (stereo unspecified)
CC50 [1]: > 100000 nM
EC50 (Plasmodium falciparum [2]): 136 nM
EC50 (Plasmodium falciparum [3]): 101 nM

CCOC(=O)c1cnc2ccccc2c1Nc1ccc(OC)c(OC)c1
CC50 [1]: 85400 nM
EC50 (Plasmodium falciparum [2]): 66.5 nM
EC50 (Plasmodium falciparum [3]): 84.6 nM

Cc1ccn2c(NC(C)(C)CC(C)(C)C)c(-c3ccccc3OC(=O)c3cccc(Cl)c3)nc2c1
CC50 [1]: > 10000 nM
EC50 (Plasmodium falciparum [2]): 424 nM
EC50 (Plasmodium falciparum [3]): 9.89 nM

CN1CCN=C1c1ccc(NC(=O)c2ccc(C(=O)Nc3ccc(C4=NCCN4C)cc3)c([N+](=O)[O-])c2)cc1
CC50 [1]: > 10000 nM
EC50 (Plasmodium falciparum [2]): 72.5 nM
EC50 (Plasmodium falciparum [3]): 9.13 nM

O=[N+]([O-])c1cc(C(F)(F)F)ccc1N1CCCN(C(=S)Nc2ccccc2)CC1
CC50 [1]: > 100000 nM
EC50 (Plasmodium falciparum [2]): 87.8 nM
EC50 (Plasmodium falciparum [3]): 102 nM

CCN1C(=O)N(CCC(C)C)C2(CCN(Cc3cc(Cl)ccc3O)CC2)C1=O
CC50 [1]: > 100000 nM
EC50 (Plasmodium falciparum [2]): 348 nM
EC50 (Plasmodium falciparum [3]): 102 nM

CCOC(=O)C1=C(C)NC2=C(C(=O)C(C(=O)OCC)C(c3ccccc3OC)C2)C1c1ccc([N+](=O)[O-])cc1 (stereo unspecified)
CC50 [1]: > 100000 nM
EC50 (Plasmodium falciparum [2]): 114 nM
EC50 (Plasmodium falciparum [3]): 102 nM

COCCNC(=S)N1CCN(S(=O)(=O)c2ccc([N+](=O)[O-])cc2)CC1
CC50 [1]: > 100000 nM
EC50 (Plasmodium falciparum [2]): 176 nM
EC50 (Plasmodium falciparum [3]): 101 nM

O=C(Nc1ccc(C2=NCCCN2)cc1)c1ccc(C(=O)Nc2ccc(C3=NCCCN3)cc2)cc1
CC50 [1]: > 100000 nM
EC50 (Plasmodium falciparum [2]): 120 nM
EC50 (Plasmodium falciparum [3]): 93.2 nM

Oc1ccc(-c2ccccc2)cc1CNCCc1ccc(F)cc1
CC50 [1]: > 10000 nM
EC50 (Plasmodium falciparum [2]): 691 nM
EC50 (Plasmodium falciparum [3]): < 9.74 nM

Cc1cccc2cc(CNC3CCOC(C)(C)C3)c(N3CCCC3)nc12 (stereo unspecified)
CC50 [1]: 39000 nM
EC50 (Plasmodium falciparum [2]): 21.4 nM
EC50 (Plasmodium falciparum [3]): 39.7 nM

Cc1ccn2c(NC(C)(C)CC(C)(C)C)c(-c3ccccc3OC(=O)CCC3CCCC3)nc2c1
CC50 [1]: > 10000 nM
EC50 (Plasmodium falciparum [2]): 1100 nM
EC50 (Plasmodium falciparum [3]): < 10.2 nM

COc1ccc(C(OCCS(=O)(=O)CCO)(c2ccccc2)c2ccc(OC)cc2)cc1
CC50 [1]: 51600 nM
EC50 (Plasmodium falciparum [2]): 70.3 nM
EC50 (Plasmodium falciparum [3]): 48.9 nM

CCCCN(C)Cc1cc(-c2cccc(OC)n2)ccc1O
CC50 [1]: > 100000 nM
EC50 (Plasmodium falciparum [2]): 875 nM
EC50 (Plasmodium falciparum [3]): 90.3 nM

Cc1cc(-c2ccc(O)c(CN3CCCCC3CO)c2)c2ccccc2n1 (stereo unspecified)
CC50 [1]: 59100 nM
EC50 (Plasmodium falciparum [2]): 361 nM
EC50 (Plasmodium falciparum [3]): 57.7 nM
